Key:
Format in all cases: cell-based, human
BLEC Jurkat clones = experiment: Specificity of activated BLEC Jurkat clones, relative beta-lactamase activity; details: PMA 8 nM, Thaps 1 microM, CsA 100 nM, PHA 10 microgram/ml
From the text: (§1) Isolated clones from PHA-induced (Example 6) and PHA-repressed (Example 7) procedures described above were characterized to determine the specificity of their modulation and time required for induction or repression. Clones were stimulated with multiple activators or inhibitors over a one to twenty-four hour time interval.
(§2) In this study, PMA, which is a PKC activator, Thapsigargin which increases intracellular calcium, PHA which activates the T-cell receptor pathway, and cyclosporin A which is a clinically approved immunosuppressant that inhibits the Ca^2+ dependent phosphates calcineurin were investigated for their ability to modulate beta-lactamase expression in PHA induced and repressed BLEC clones.

[1] = system: clone C2 (3×NFAT response element linked to beta-lactamase, M1 muscurinic receptor); experiment: Relative beta-lactamase activity of control clone C2; details: PMA 8 nM, Thaps 1 microM, CsA 100 nM, PHA 10 microgram/ml
From the text: as §1, §2

[2] = system: induced BLEC Jurkat clones; experiment: Characterization of induced BLEC Jurkat clones, change in 460/530 ratio; details: PHA 10 microgram/ml, Thaps 1 microM, PMA 8 nM, Anti-CD3 2 microgram/ml
From the text: These clones represent cells in which the trapping construct had integrated into a gene up regulated by PHA (T-cell) activation. Thus, these cells report the transcriptional activation of a gene upon cellular activation. Individual clones were identified and isolated by FACS using CCF2/AM to detect beta-lactamase activity. This clone isolation method, the induced sorting paradigm, used three sequential and independent stimulation and sorting protocols. […] These control cells were all green.
These isolated clones were expanded and tested for PHA inducibility by microscopic inspection with and without PHA stimulation in the presence of CCF2/AM. A total of fifty-five PHA inducible clones were identified using this procedure. The PHA inducibility for these clones ranged from a 1.5 to 40 fold change in the 460/530 ratio as compared to unstimulated control cells. Genomic Southern analysis using a DNA probe encoding beta-lactamase established that these clones represented 34 independent stable vector integration events. A list of clones obtained by the methods of the present invention and their characteristics is provided below in Table 6 and Table 7.
In addition to PHA inducible clones, Phobol 12-myristate 13-acetate (PMA) (Calbiochem), Thapsigargin (Thaps) (Calbiochem), and PMA+Thaps inducible clones were isolated using the general procedure set forth above using the indicated inducer rather than PHA. PMA is a specific activator of PKC (protein kinase C) and Thaps is a specific activator of intracellular calcium ion release (Thaps). These clones were isolated using three rounds of FACS using the general procedures described for the PHA inducible clones in Example 5. In such instances, other stimulants were substituted for PHA. PMA was provided at 8 nM, Thaps was provided at 1 microM. When these two stimulants were combined, their concentration was not changed. […] By using varied selection conditions, it is possible to isolate functionally distinct clones downstream of the desired signaling target.
Table 7 and Table 8 provide data similar to that provided in Table 5 for all of the clones obtained by the methods of Examples 5 to 7.

CCCCCCCCCCCCCC(=O)O[C@@H]1[C@@H](C)[C@@]2(O)[C@@H](C=C(CO)C[C@]3(O)C(=O)C(C)=C[C@@H]23)[C@@H]2C(C)(C)[C@]12OC(C)=O [PMA, Phobol 12-myristate 13-acetate]
Relative Beta-Lactamase Activity of the Clone by the Indicated Stimulus After 24 hours (% of maximum activated stimuli) (BLEC Jurkat clones; clone J32-6D4): 60%
Relative Beta-Lactamase Activity of the Clone by the Indicated Stimulus After 24 hours (% of maximum activated stimuli) (BLEC Jurkat clones; clone J83 97-PPTR2 (repressed paradigm)): 100%
Relative Beta-Lactamase Activity of the Clone by the Indicated Stimulus After 24 hours (% of maximum activated stimuli) (BLEC Jurkat clones; clone J83-PI9): <1%
Relative Beta-Lactamase Activity of the Clone by the Indicated Stimulus After 24 hours (% of maximum activated stimuli) (BLEC Jurkat clones; clone J83-PTI8): 80%
Relative Beta-Lactamase Activity of the Clone by the Indicated Stimulus After 24 hours (% of maximum activated stimuli) (BLEC Jurkat clones; clone J389-PTI4): 90%
Relative Beta-Lactamase Activity of the Clone by the Indicated Stimulus After 24 hours (% of maximum activated stimuli) [1]: <1%
Change in 460/530 ratio in the indicated clone by the following activator ([2]; clone J83PI1): 3-4
Change in 460/530 ratio in the indicated clone by the following activator ([2]; clone J83PI2): 7-8
Change in 460/530 ratio in the indicated clone by the following activator ([2]; clone J83PI3): 3-4
Change in 460/530 ratio in the indicated clone by the following activator ([2]; clone J83PI4): 0
Change in 460/530 ratio in the indicated clone by the following activator ([2]; clone J83PI6): 0
Change in 460/530 ratio in the indicated clone by the following activator ([2]; clone J83PI7): 2
Change in 460/530 ratio in the indicated clone by the following activator ([2]; clone J83PI8): 4-5
Change in 460/530 ratio in the indicated clone by the following activator ([2]; clone J83PI9): 0
Change in 460/530 ratio in the indicated clone by the following activator ([2]; clone J83PI13): 0
Change in 460/530 ratio in the indicated clone by the following activator ([2]; clone J83PI14): 2
Change in 460/530 ratio in the indicated clone by the following activator ([2]; clone J83PI15): 3
Change in 460/530 ratio in the indicated clone by the following activator ([2]; clone J83PI16): 3-4
Change in 460/530 ratio in the indicated clone by the following activator ([2]; clone J83PI18): 5
Change in 460/530 ratio in the indicated clone by the following activator ([2]; clone J83PI19): 3
Change in 460/530 ratio in the indicated clone by the following activator ([2]; clone J97PI1): 3-4
Change in 460/530 ratio in the indicated clone by the following activator ([2]; clone J97PI3): 1-2
Change in 460/530 ratio in the indicated clone by the following activator ([2]; clone J97PI4): 1-2
Change in 460/530 ratio in the indicated clone by the following activator ([2]; clone J97PI5): 1.5
Change in 460/530 ratio in the indicated clone by the following activator ([2]; clone J97PI6): 1-2
Change in 460/530 ratio in the indicated clone by the following activator ([2]; clone J97PI7): 1-2
Change in 460/530 ratio in the indicated clone by the following activator ([2]; clone J97PI8): 1-2
Change in 460/530 ratio in the indicated clone by the following activator ([2]; clone J97PI9): 1-2
Change in 460/530 ratio in the indicated clone by the following activator ([2]; clone J97PI10): 1-2
Change in 460/530 ratio in the indicated clone by the following activator ([2]; clone J97PI11): 2
Change in 460/530 ratio in the indicated clone by the following activator ([2]; clone J97PI12): 2-3
Change in 460/530 ratio in the indicated clone by the following activator ([2]; clone J97PI13): 1-2
Change in 460/530 ratio in the indicated clone by the following activator ([2]; clone J97PI14): 2
Change in 460/530 ratio in the indicated clone by the following activator ([2]; clone J97PI15): 1-2
Change in 460/530 ratio in the indicated clone by the following activator ([2]; clone J97PI17): 1-2
Change in 460/530 ratio in the indicated clone by the following activator ([2]; clone J97PI18): 1-2
Change in 460/530 ratio in the indicated clone by the following activator ([2]; clone J97PI19): 1-2
Change in 460/530 ratio in the indicated clone by the following activator ([2]; clone J97PI20): 1-2
Change in 460/530 ratio in the indicated clone by the following activator ([2]; clone J97PI21): 1-2
Change in 460/530 ratio in the indicated clone by the following activator ([2]; clone J97PI22): 2-3
Change in 460/530 ratio in the indicated clone by the following activator ([2]; clone J97PI23): 1-2
Change in 460/530 ratio in the indicated clone by the following activator ([2]; clone J97PI24): 2-3
Change in 460/530 ratio in the indicated clone by the following activator ([2]; clone J97PI116): 2-3
Change in 460/530 ratio in the indicated clone by the following activator ([2]; clone J325B5): 2-3
Change in 460/530 ratio in the indicated clone by the following activator ([2]; clone J325B11): 2-3
Change in 460/530 ratio in the indicated clone by the following activator ([2]; clone J325E1): 8
Change in 460/530 ratio in the indicated clone by the following activator ([2]; clone J325E3): 2-3
Change in 460/530 ratio in the indicated clone by the following activator ([2]; clone J325E6): 3-4
Change in 460/530 ratio in the indicated clone by the following activator ([2]; clone J325G4): 3-4
Change in 460/530 ratio in the indicated clone by the following activator ([2]; clone J326C9): 2-3
Change in 460/530 ratio in the indicated clone by the following activator ([2]; clone J326D4): 10
Change in 460/530 ratio in the indicated clone by the following activator ([2]; clone J326D7): 10
Change in 460/530 ratio in the indicated clone by the following activator ([2]; clone J326F7): 10
Change in 460/530 ratio in the indicated clone by the following activator ([2]; clone J326H4): 10
Change in 460/530 ratio in the indicated clone by the following activator ([2]; clone J389PM2): 3-4
Change in 460/530 ratio in the indicated clone by the following activator ([2]; clone J389PM3): 2-3
Change in 460/530 ratio in the indicated clone by the following activator ([2]; clone J389PM5): 3-4
Change in 460/530 ratio in the indicated clone by the following activator ([2]; clone J389PM7): 1-2
Change in 460/530 ratio in the indicated clone by the following activator ([2]; clone J389PM8): 2-3
Change in 460/530 ratio in the indicated clone by the following activator ([2]; clone J389PT4): 12
Change in 460/530 ratio in the indicated clone by the following activator ([2]; clone J389PTt): 8-9
Change in 460/530 ratio in the indicated clone by the following activator ([2]; clone J389TI1): 1-2
Change in 460/530 ratio in the indicated clone by the following activator ([2]; clone J389TI4): 1-2

Reference: patent US20020025940A1, “Methods and compositions for sensitive and rapid, functional identification of genomic polynucleotides and use for cellular assays in drug discovery” (Aurora Biosciences Corporation, priority 1997, published 2002)
